Results reported in PMC12666239 (Chembiochem, 2025).
“And” between values parts separate entries of the source, which are not always exact repeats. Equal entries are not always repeated.

Biological target: Nsp3b^F360N/D361S (Severe acute respiratory syndrome coronavirus 2, UniProt P0DTD1, D1179S/F1178N)
Type: binding, SARS-CoV-2

## N#C[C@@]1(c2ccc3c(N)ncnn23)O[C@H](COS(N)(=O)=O)[C@@H](O)[C@H]1O [compound 3]
  TΔS: ≈ 0.10 kcal mol^−1
  ΔG: −7.73 kcal mol^–1
  ΔH: −7.83 ± 0.15 and −7.83 ± 0.15 kcal mol^–1
  −TΔS: 0.104 kcal mol^–1
